Laboratory results from patent US20200399250A1, “Pyrimidine Derivatives as Tropomyosin Receptor Kinase A (TRKA) Inhibitors” (BIOMED X GMBH, priority 2017, published 2020).
Several values for one entry are separate records, joined by “and”; a condition that tells them apart may be missing. Identical values can stand only once.

Tests used:
AurA = biological target: T1, AurA (Homo sapiens, UniProt O14965); test: KdELECT Kd measurement (KINOMEscan), AurA; type: binding
T1 sequence (O14965 1-403): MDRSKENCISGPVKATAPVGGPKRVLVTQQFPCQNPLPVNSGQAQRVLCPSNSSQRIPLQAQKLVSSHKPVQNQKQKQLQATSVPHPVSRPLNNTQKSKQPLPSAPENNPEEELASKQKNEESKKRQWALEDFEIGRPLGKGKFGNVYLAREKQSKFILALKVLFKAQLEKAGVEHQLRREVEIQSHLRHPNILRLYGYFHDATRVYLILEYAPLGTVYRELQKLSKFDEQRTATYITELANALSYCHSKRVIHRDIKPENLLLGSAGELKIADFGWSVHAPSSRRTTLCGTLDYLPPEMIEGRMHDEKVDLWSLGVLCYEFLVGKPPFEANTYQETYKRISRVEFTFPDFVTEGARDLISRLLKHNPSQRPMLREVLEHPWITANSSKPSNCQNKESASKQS
Description: Kd measurements were done via the KdELECT product service from DiscoverX Corporation (Freemont, Calif., USA) which also employs the KINOMEscan technology. Here, inhibitor binding constants (Kd values) are calculated from duplicate 11-point dose-response curves.

[1] = biological target: full-length human TrkA receptor (Homo sapiens, UniProt P04629); test: PathHunter cellular functional assay, antagonism of β-NGF; type: cell-based; conditions: antagonism at EC80 (0.03 μg/ml) of β-NGF; read-out: Cellular assay [RC50]
full-length human TrkA receptor, sequence (P04629 33-796): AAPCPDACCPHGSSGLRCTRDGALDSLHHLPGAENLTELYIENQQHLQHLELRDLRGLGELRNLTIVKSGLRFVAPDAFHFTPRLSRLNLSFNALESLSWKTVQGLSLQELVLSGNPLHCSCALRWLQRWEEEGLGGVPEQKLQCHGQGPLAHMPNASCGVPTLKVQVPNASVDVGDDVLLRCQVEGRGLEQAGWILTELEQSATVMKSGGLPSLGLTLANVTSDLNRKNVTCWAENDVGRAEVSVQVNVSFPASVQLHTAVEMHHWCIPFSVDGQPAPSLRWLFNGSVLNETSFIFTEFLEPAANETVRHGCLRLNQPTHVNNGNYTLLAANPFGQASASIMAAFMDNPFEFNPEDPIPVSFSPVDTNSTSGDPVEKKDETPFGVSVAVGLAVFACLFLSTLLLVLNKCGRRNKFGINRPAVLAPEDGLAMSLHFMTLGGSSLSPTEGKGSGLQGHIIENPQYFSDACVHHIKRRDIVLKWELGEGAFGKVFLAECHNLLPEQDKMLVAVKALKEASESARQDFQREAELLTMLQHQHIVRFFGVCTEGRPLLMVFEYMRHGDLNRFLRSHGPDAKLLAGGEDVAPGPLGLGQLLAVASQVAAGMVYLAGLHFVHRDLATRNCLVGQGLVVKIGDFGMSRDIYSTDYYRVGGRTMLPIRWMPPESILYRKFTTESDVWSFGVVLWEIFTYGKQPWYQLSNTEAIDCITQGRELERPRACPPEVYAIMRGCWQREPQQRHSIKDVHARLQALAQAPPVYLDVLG
full-length human TrkA receptor, sequence (P01138 122-241 partner): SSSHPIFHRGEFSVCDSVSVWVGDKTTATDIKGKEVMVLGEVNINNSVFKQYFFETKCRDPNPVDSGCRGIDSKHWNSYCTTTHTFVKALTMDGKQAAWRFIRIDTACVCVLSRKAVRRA
Excerpt: The two compounds a1 and b7 were additionally tested in a functional assay using the PathHunter® technology (DiscoverX Corporation, Freemont, Calif., USA; https://www.discoverx.com/technologies-platforms/enzyme-fragment-complementation-technoloqy/cell-based-efc-assays/protein-protein-interactions/kinases-cell-based-(rtk-ctk)). In this assay, the full-length human TrkA receptor (i.e. including ligand-binding and kinase domains) is expressed as a C-terminal (intracellular) fusion with a small peptide epitope, called Prolink™ (PK). Furthermore, a SH2 domain containing protein (i.e. Shc1) is co-expressed with a larger Enzyme Acceptor (EA) fragment. Activation of the TrkA receptor by adding the agonist ligand (β-NGF), leads to the auto-phosphorylation of the kinase and subsequent binding of the Shc1-EA protein. That recruitment results in an active B-galactosidase enzyme that is detected by addition of a chemiluminescent substrate.
Compounds were tested for antagonism using EC80 concentration (i.e. 0.03 μg/ml) of β-NGF. Data was normalized to the maximal and minimal response observed in the presence of EC80 agonist ligand (3-NGF) and vehicle (DMSO, final concentration 1%), respectively.

[2] = Plasma concentration of compound a1 after i.v. injection in mice (LC-MS-MS); type: in vivo, C57Bl/6 mice; conditions: for Plasma Conc. of Compound a1: 1 hour, single animal; for concentration at 1 h: female, C57Bl/6, mouse, plasma, intravenous
Description: Compound a1 was synthesized under contract by the company Enamine Ltd. according to Example 1. Dimethylsulfoxide (DMSO) from J. T. Baker (Germany), Cremophor EL (Polyoxyethyleneglycerol triricinoleate 35 castor oil) from BASF (Germany), and Saline solution 0.9% from B. Braun (Germany) were used in this study. Two types of formulations were prepared: a formulation with a high dose of compound a1 (9 mM) and a formulation with a low dose of compound a1 (1.8 mM); c.f. Tables 5 and 6. First, a 100 mM stock solution of compound a1 in DMSO was prepared by dissolving 18.46 mg of compound a1 (molecular weight of 461.56 g/mol) in 400 μl DMSO at room temperature. The formulation with the high dose of a1 was prepared using 9% a1-DMSO stock solution, 10% Cremophor EL, and 81% saline. The formulation with the low dose of a1 contained 1.8% a1-DMSO stock solution, 5% Cremophor EL, and 93.2% saline; c.f. FIG. 2.
Experiments were carried out in accordance with the EU Directive 86/609/EEC on the protection of animals used for scientific purposes. Female adult C57Bl/6 mice (6-8 weeks old, body weight 20 g) were treated with 5 mg/kg (low dose) and 25 mg/kg (high dose) compound a1 or with vehicle (formulations without compound a1) or with saline by intravenous (i.v.) injections for 1 hour using a 1 ml syringe (29-G, Terumo); c.f. Table 6. After injection, the mice were returned to their home cages, and after 1 hour, the mice were anaesthetized with isoflurane. Terminal blood samples were collected using a 1 ml syringe (20-G needle, B. Braun). The blood was immediately transferred into a 1.3 ml heparin-coated tube (Sarstedt). Plasma was collected by centrifugation at 1500 g for 15 minutes. The supernatant was placed in a 1.5 ml tube on dry ice and stored at −20° C.
The quantification of compound a1 in murine plasma samples was performed via liquid chromatography tandem mass spectrometry (LC-MS-MS).

CN1CCN(c2cc(Nc3cc(-c4cccc(F)c4)[nH]n3)nc(Sc3ccccc3)n2)CC1 [a1, N-[5-(3-fluorophenyl)-1H-pyrazol-3-yl]-6-(4-methylpiperazin-1-yl)-2-(phenylsulfanyl)pyrimidin-4-amine]
AurA [pKd] (AurA): 5.3 | Kd (AurA; duplicate 11-point dose-response curves): 4.5 µM | IC50 [1]: 0.026 µM | Plasma Conc. of Compound a1 ([2]; a1_high formulation, 25 mg/kg i.v., 25 mg/kg): 805 nM and 920 nM | Plasma Conc. of Compound a1 ([2]; a1_low formulation, 5 mg/kg i.v., 5 mg/kg): 272 nM and 407 nM | concentration at 1 h ([2]; 5 mg/kg (low dose) i.v.): 340 nM | concentration at 1 h ([2]; 25 mg/kg (high dose) i.v.): 863 nM
